Test results published in patent US7087643B2, “Carbamate compounds for use in preventing or treating neuropathic pain and cluster and migraine headache-associated pain” (Ortho-McNeil Pharmaceutical Inc., priority 2001, dated 2006).

What was measured:
[1] = tested on: L5 and L6 spinal nerve ligated rats (mechanical allodynia); assay: Antiallodynic activity, Chung model, electronic Von Frey probes; type: in vivo, rat (Rj: Wistar (Han)); details: for % Change (force required to induce paw-withdrawal vs controls): ligatured paw
Text: (§1) The procedure used to test the antiallodynic activity of a compound of Formula (I) was the procedure for the measurement of allodynia found in the Chung Model (Kim S. H. and Chung J. M., An Experimental Model for Peripheral Neuropathy Produced by Segmental Spinal Nerve Ligation in the Rat, Pain, 1992, 50, 355–363).
Pathogen-free, male Rj: Wistar (Han) rats (300–380 g) were purchased from Elevage Janvier, 53940 Le Genest-Saint-Isle, France. The animals were maintained on a 12-h light/dark cycle (lights on from 7:00–19:00) in a controlled ambient temperature of 21±1° C., and relative humidity maintained at 40–70%. The animals had free access to food (UAR 113) and tap water until tested.
Rats were anesthetized (sodium pentobarbital 40 mg/kg i.p.). A ligature was tied tightly around the left L5 and L6 spinal nerves. The rats received an i.m. injection of 50 000 IU Penicillin (Diamant®) and were allowed to recover. This procedure results in mechanical allodynia in the left hind paw. Two weeks after the surgery, when the allodynic state was fully developed, rats were submitted consecutively to tactile stimulation of both the non-lesioned and the lesioned hindpaws.
The animals were placed on an elevated grid floor in Plexiglass boxes (19×11.5×13 cm). The tip of an electronic Von Frey probe (Bioseb, Model 1610) was then applied with increasing pressure to the lesioned and non-lesioned hindpaws and the force required to induce paw-withdrawal was automatically recorded. Prior to receiving drug treatment all animals were submitted to tactile stimulation and assigned to treatment groups matched on the basis of their pain response. This procedure was carried out 3 times for each paw and the mean paw force was calculated to provide basic scores per animal. Data were expressed as percent change (means±SEM) of effectiveness from the controls. Statistical analysis was done using non-paired and paired Student's t tests.
As summarized in Table 2 below, the enantiomer of Formula (Ic) was evaluated at the doses 10, 30 and 100 mg/kg (n=8), administered p.o. in a volume of 5 mL/kg. Morphine ([…]) was used as reference substance. Control animals received a p.o. administration of vehicle. The test was performed blind 30, 60 and 90 minutes after drug administration.

[2] = tested on: L5 spinal nerve ligated rats (mechanical allodynia, Chung model of neuropathic pain); assay: Antiallodynic activity, Chung model, manually applied von Frey probes; type: in vivo, rat (Sprague-Dawley); details: for % Maximum Possible Effect: time of peak effect
Experimental: as §1
Pathogen-free, male albino Sprague-Dawley rats, 200 g, were purchased from Harlan Industries (Indianapolis, Ind.) and maintained on a 12-h light/dark cycle (lights on at 06:00 h) in a climate-controlled room with food and water available ad libitum up to the time of the testing and food withdrawn 18 hr prior to testing.
The rats were anesthetized with isoflurane inhalant anesthesia. The left lumbar spinal nerve at the level of L5 was tightly ligated (4-0 silk suture) distal to the dorsal root ganglion and prior to entrance into the sciatic nerve, as described by Kim and Chung. The incisions were closed and the rats were allowed to recover under conditions described above. This procedure results in mechanical allodynia in the left hind paw. The sham operation, when performed, consisted of a similar surgical procedure lacking only the final ligation of the spinal nerve. Mechanical (tactile) allodynia was assessed by recording the pressure at which the affected paw (ipsilateral to the site of nerve injury) was withdrawn from graded stimuli (von Frey filaments ranging from 4.0 to 148.1 mN) applied by hand perpendicularly to the plantar surface of the paw (between the footpads) through wire-mesh observation cages. A paw withdrawal threshold (PWT) was determined by sequentially increasing and decreasing the stimulus strength and analyzing withdrawal data using a Dixon non-parametric test, as described by Chaplan et al (Chaplan S. R., Bach F. W., Pogrel J. W., Chung J. M. and Yaksh T. L., Quantitative Assessment of Tactile Allodynia in the Rat Paw, J Neurosci Meth, 1994, 53, 55–63). Normal rats, sham operated rats, and the contralateral paw of L5 ligated rats withstand at least 148.1 mN (equivalent to 15 g) of pressure without responding. […]

Row | Compound | % Change (force required to induce paw-withdrawal vs controls) ([1]; 10 mg/kg p.o., 60 minute post-dosing, n=8) | % Change (force required to induce paw-withdrawal vs controls) ([1]; 30 mg/kg p.o., 60 minute post-dosing, n=8) | % Change (force required to induce paw-withdrawal vs controls) ([1]; 100 mg/kg p.o., 60 minute post-dosing, n=8) | Effect on non-ligatured paw withdrawal force ([1]; 10, 30 and 100 mg/Kg p.o., 60 minute post-dosing) | Anti-allodynic effect at 90 minutes post-dosing ([1]; 10, 30 and 100 mg/Kg p.o., 90 minutes post-dosing) | % Maximum Possible Effect ([2]; 30 mg/Kg po, 30 minutes after oral dosing, n=5) | % Maximum Possible Effect ([2]; 100 mg/Kg po, 30 to 60 minutes after oral dosing, n=10) | Duration of antiallodynic response ([2]; 30 and 100 mg/Kg po, responses measured at 0.5, 1, 2 and 4 hours post dosing) | % Change (force required to induce paw-withdrawal vs controls) ([1]; 128 mg/Kg morphine positive control)
1 | NC(=O)OC[C@H](OC(N)=O)c1ccccc1Cl [Formula (Ic)] | 69% | 115% | 88% | without affecting the non-ligatured paw | no longer present by 90 minutes post-dosing | 0% | 25.7% | responses returned to baseline by one hour | 
2 | CN1CC[C@]23c4c5ccc(O)c4O[C@H]2[C@@H](O)C=C[C@H]3[C@H]1C5 [morphine, reference compound] |  |  |  |  |  |  |  |  | 38%
